# Data taken from paper PMC8498988, “Scaffold Hybridization Strategy Leads to the Discovery of Dopamine D3 Receptor-Selective or Multitarget Bitopic Ligands Potentially Useful for Central Nervous System Disorders” (ACS Chemical Neuroscience, 2021).
# Tests used:
# D4R = biological target: T1, D4R (Homo sapiens, UniProt P21917); assay: D4 adenylate cyclase/cAMP functional assay (HEK-D4.4-AC1 cells); type: cell-based; parameters: expressed in transfected cells; host or cells: HEK-D4.4-AC1 cells; conditions: for EC50 / % stimul., D4 adenylate cyclase: agonist mode; for EC50: inhibition of forskolin-stimulated cAMP formation; for % stimul., D4 adenylate cyclase: normalized to maximal effect of quinpirole; for functional behavior at D4R: in words
# T1 sequence (P21917 1-419): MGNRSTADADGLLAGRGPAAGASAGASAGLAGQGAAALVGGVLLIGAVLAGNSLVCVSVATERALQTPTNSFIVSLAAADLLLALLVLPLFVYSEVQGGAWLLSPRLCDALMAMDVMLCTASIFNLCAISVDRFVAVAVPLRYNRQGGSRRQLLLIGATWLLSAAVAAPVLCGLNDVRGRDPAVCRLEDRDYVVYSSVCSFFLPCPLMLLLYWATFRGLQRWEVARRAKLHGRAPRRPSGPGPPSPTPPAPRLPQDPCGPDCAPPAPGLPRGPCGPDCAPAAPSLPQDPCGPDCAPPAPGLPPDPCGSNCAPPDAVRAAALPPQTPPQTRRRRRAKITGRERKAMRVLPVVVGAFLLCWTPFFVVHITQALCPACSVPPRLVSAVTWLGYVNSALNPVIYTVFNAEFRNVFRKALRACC
# Protocol: HEK-D4.4-AC1 cells are grown to confluency on […]. The cells are plated at a density of 375,000 cells per well in 48-well plates in DMEM supplemented with 5% FetalClone, 5% BCS, and pen-strep. After ∼36 h, the medium is changed to DMEM supplemented with 10% charcoal-stripped FetalClone and pen-strep. The medium is removed ∼18 h later. For agonist assays, 0.8 mL of EBSS (116 mM NaCl, 22 mM glucose, 15 mM HEPES, 8.7 mM NaH2PO4, 5.4 mM KCl, 1.3 mM CaCl2, 1.2 mM MgSO4, 1 mM ascorbic acid, 0.5 mM IBMX [3-isobutyl-1-methyl-xanthine], and 2% BCS, pH 7.4 at 37 °C) is added, cells are incubated for 20 min, agonists are added, and, after a 20 min incubation, 10 μM of forskolin is added in a final volume of 1 mL. For antagonists, 0.7 mL of EBSS is added, cells are incubated for 10 min, antagonists are added, cells are incubated for 10 min, 2 nM quinpirole is added, and after a 20 min incubation, 10 μM forskolin is added in a final volume of 1 mL. For all conditions, after a 20 min incubation with forskolin, the reaction is terminated by aspiration of the buffer, and 0.1 mL of trichloroacetic acid is added. The plates are incubated for 2 h on a rotator. Adenylate cyclase activity is measured using a cyclic AMP EIA kit (Cayman). Aliquots (9 μL) of each well are diluted to 200 μL with EIA buffer from the kit, and 50 μL of dilution is added to the EIA plate. After addition of tracer and monoclonal antibody, the EIA plates are incubated for 18 h at 4 °C. The reaction is aspirated, the plates are washed with 5 × 300 μL wash buffer, and Ellman’s reagent is added. After a 2 hour incubation in the dark on a rotator, the plates are read at 410 nm. Basal cAMP is subtracted from all values. D4R agonists inhibit forskolin-stimulated cAMP formation, and maximal inhibition is defined with 1 μM quinpirole. Data normalized to percent forskolin stimulation are shown in the graph. The maximal effect is normalized to maximal effect of quinpirole in the tables. For antagonists, maximal reversal of inhibition of cAMP formation is defined with 10 μM haloperidol.
# D3R = D3R (Homo sapiens, UniProt P35462); assay: Radioligand competition binding at human D3R ([3H]N-methylspiperone, HEK293 membranes); parameters: expressed in transfected cells; host or cells: HEK293; conditions: selectivity
# Chain of D3R (P35462 whole entry): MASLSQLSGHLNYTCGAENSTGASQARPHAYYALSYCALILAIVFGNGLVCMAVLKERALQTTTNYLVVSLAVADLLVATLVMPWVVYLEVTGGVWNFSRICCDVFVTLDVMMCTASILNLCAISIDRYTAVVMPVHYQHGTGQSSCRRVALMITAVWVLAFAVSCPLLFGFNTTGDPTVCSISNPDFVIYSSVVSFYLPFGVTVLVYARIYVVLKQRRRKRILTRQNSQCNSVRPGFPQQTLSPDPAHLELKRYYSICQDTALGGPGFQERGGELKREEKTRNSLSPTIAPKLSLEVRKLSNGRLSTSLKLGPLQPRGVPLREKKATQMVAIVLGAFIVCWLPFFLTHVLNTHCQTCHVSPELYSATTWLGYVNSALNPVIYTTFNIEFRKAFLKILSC
Structure (SMILES),EC50 (D4R) [nM],"% stimul., D4 adenylate cyclase (D4R) [%]",functional behavior at D4R (D4R),5-HT1A/D3 (D3R; ratio of Ki values 5-HT1AR/D3R),5-HT2A/D3 (D3R; ratio of Ki values 5-HT2AR/D3R),5-HT2C/D3 (D3R; ratio of Ki values 5-HT2CR/D3R),D1/D3 (D3R; ratio of Ki values D1R/D3R)
"O=C(NCCCCN1CCN(c2cccc(Cl)c2Cl)CC1)C1COC(c2ccccc2)(c2ccccc2)CO1 (stereo not shown) [compound 6, N-(4-(4-(2,3-Dichlorophenyl)piperazin-1-yl)butyl)-5,5-diphenyl-1,4-dioxane-2-carboxamide]",21.7 ± 8.4,76.7,efficacious 5-HT1AR and D4R agonists with high potency,–,–,–,–
"O=C(NCCCCN1CCN(c2cccc(Cl)c2Cl)CC1)C1COc2ccccc2O1 (stereo not shown) [compound 9, N-(4-(4-(2,3-Dichlorophenyl)piperazin-1-yl)butyl)-2,3-dihydrobenzo[b][1,4]dioxine-2-carboxamide]",15.3 ± 1.9,73.1,efficacious 5-HT1AR and D4R agonists with high potency,–,–,–,–
"O=C(NCCCCN1CCN(c2cccc(Cl)c2Cl)CC1)C1COCC(c2ccccc2)(c2ccccc2)O1 (stereo not shown) [compound 3, N-(4-(4-(2,3-Dichlorophenyl)piperazin-1-yl)butyl)-6,6-diphenyl-1,4-dioxane-2-carboxamide]",–,–,–,121,108,269,185
